Assay results published in patent US20230372496A1, “TRICYCLIC HETEROBIFUNCTIONAL COMPOUNDS FOR DEGRADATION OF TARGETED PROTEINS” (C4 Therapeutics, Inc., priority 2020, published 2023).
Read-outs that look alike come from different tables or passages of the source.

Columns and labels:
CRBN-DDB1 = CRBN-DDB1 (Homo sapiens, UniProt Q96SW2); test: CRBN FP binding assay (fluorescence polarization); conditions: 150 nM CRBN-DDB1, 5 nM Alexa-647 probe, read-out: FP CRBN_DDB1.3 ka
Description: The determination of the binding constant (KD) of test compounds to CRBN-DDB1 was carried out using an established sensitive and quantitative in vitro fluorescence polarization (FP) binding assay. Control compounds were run on the same plate. Compounds were dispensed from serially diluted DMSO stock supplied by Frontier Scientific Services Inc in low dead volume plates into black 384-well compatible FP plates using acoustic technology to 1% of total reaction volume. Compounds were arranged vertically in rows A through P. Concentrations series are horizontal: columns 1-11, and then duplicates in columns 12-22. Columns 23 and 24 are reserved for 0% (5 nM probe) and 100% controls (protein at high concentration with 5 nM probe), respectively. […] Matching control plates excluding CRBN-DDB1 were used to correct for background fluorescence. Plates were read on an Envision plate reader with appropriate FP filter sets.

CBP/P300 = molecular target: T1, CBP/P300 (Homo sapiens, UniProt Q92793); test: CBP/P300 degradation, Nano-Glo HiBiT lytic assay; format: cell-based; conditions: HEK293T HiBiT-CBP cells, 6 h incubation; for Emax: HEK-293T
T1 construct: endogenous in cells; host or cells: HEK293T (CRISPR/Cas9 HiBiT knock-in at the CBP locus)
T1 sequence (Q92793 whole entry): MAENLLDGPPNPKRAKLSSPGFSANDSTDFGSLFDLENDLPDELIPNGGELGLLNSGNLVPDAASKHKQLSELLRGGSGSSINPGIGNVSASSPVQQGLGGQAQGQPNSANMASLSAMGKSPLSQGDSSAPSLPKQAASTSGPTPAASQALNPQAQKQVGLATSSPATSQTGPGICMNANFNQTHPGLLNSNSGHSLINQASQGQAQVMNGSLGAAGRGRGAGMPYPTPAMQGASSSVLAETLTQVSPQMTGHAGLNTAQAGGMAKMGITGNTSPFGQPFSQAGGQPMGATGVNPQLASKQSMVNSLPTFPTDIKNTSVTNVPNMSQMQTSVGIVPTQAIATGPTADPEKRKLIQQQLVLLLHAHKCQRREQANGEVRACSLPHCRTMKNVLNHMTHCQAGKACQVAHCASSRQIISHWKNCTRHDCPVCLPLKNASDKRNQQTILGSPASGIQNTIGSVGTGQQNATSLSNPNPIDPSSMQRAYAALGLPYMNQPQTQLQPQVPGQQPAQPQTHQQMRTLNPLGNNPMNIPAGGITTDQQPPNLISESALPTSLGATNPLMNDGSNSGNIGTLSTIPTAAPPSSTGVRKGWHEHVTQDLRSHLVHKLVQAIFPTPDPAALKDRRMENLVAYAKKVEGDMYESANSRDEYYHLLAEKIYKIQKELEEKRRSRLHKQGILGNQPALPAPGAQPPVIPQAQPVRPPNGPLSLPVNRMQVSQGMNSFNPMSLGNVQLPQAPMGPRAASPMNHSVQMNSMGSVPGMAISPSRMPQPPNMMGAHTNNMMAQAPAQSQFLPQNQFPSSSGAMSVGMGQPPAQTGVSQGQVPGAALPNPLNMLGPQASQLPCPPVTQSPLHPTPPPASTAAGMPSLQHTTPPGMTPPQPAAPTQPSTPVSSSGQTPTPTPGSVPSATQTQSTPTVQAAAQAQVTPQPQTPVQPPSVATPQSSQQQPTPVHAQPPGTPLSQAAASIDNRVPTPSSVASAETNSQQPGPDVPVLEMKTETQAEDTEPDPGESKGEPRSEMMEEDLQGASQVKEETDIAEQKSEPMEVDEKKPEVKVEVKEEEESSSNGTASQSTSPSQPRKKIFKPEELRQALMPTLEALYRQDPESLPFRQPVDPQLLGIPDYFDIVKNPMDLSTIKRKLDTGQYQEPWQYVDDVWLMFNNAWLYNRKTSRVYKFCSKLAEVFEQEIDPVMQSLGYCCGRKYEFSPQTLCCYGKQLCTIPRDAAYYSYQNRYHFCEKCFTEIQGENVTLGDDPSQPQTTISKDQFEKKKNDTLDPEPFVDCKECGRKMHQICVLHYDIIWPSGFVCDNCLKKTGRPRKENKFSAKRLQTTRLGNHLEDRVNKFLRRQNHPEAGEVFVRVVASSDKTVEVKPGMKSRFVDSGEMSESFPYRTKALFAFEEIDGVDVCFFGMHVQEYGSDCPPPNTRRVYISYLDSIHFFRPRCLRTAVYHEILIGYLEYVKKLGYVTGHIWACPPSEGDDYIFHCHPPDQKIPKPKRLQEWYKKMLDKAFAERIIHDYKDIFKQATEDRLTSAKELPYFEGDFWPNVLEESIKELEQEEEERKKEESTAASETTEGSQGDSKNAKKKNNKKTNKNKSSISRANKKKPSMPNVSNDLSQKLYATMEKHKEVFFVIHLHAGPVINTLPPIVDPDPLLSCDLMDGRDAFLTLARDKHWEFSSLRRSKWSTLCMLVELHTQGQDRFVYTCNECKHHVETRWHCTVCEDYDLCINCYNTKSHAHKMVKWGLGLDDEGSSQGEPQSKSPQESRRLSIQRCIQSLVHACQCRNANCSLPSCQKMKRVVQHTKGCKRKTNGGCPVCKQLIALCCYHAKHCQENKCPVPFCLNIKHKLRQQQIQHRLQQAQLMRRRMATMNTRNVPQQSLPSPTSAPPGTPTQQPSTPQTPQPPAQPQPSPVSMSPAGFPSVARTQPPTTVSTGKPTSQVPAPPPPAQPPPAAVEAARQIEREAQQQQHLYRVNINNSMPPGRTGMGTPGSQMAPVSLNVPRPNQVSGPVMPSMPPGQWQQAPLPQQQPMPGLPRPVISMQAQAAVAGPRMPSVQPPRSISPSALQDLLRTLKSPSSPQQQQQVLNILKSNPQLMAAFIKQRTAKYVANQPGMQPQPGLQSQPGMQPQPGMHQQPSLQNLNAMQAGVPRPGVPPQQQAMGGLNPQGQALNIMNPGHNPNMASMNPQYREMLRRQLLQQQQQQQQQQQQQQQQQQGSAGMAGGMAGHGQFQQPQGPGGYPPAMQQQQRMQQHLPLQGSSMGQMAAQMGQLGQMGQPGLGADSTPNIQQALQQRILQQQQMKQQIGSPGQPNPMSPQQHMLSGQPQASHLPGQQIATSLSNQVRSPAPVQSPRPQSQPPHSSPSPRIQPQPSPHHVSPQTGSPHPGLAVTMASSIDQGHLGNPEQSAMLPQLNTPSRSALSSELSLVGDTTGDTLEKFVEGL
Source text: Assay media was DMEM no-phenol red medium and fetal bovine serum (FBS) were purchased from Gibco (Grand Island, N.Y., USA). Nano-Glo®, 1HiBiT Lydc Assay Systeni was purchased from Promega (Madison, Wis. USA). Stable HEK293T cell line with endogenously tagged HiBiT-CBP was generated in house by CRISPR/Cas9 gene editing introducing the HiBiT fusion tag at the N-terminus using homologous directed repair. Cell culture flasks and 384-well microplates were acquired from VWR (Radnor, Pa., USA).
CBP degradation was determined based on quantification of luminescent signal using Nano-Glo® HiBiT Lytic Assay kit. Test compounds were added to the 384-well plate from a top […] with 11 points, half log titration in duplicates, Cells were added into 384-well Corning 3570 plates, (Corning, Tewksbury, MA, USA) at a cell density of 10,000 cells per well in assay media. The plates were incubated at 37° C. with 5% CO2 for 6 hours. The cells treated in the absence of the test compound were the negative control and media was the positive control. After 6-hour incubation, Nano-Glo® HiBiT Lytic Assay reagents were added to the cells, Luminescence was acquired on EnVision™ Multilabel Reader (PerkinElmer, Santa Clara, Calif., USA).

cellular cereblon (CRBN) = cellular cereblon (CRBN) (Homo sapiens, UniProt Q96SW2); test: NanoBRET CRBN assay, displacement of pomalidomide-NanoBRET tracer in 293T cells
cellular cereblon (CRBN), sequence (Q96SW2 whole entry, species assumed): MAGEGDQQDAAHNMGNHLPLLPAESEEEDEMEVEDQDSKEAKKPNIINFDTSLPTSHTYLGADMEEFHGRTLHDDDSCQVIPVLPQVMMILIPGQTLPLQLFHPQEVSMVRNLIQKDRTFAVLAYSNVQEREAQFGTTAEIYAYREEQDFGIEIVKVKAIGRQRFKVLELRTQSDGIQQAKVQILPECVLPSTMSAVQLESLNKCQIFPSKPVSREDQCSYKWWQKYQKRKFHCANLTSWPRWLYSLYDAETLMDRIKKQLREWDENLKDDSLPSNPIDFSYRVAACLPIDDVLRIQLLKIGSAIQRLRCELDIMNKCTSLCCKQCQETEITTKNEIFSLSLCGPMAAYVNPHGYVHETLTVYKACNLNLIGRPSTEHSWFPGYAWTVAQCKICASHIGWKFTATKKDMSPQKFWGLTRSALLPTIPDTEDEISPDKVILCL

ERK1/2 = ERK1/2 degradation, Total ERK HTRF assay in Colo205 cells; format: cell-based; conditions: 6 h, read-out: ERK1/2 6 h DC50 (Emax %)
Description: Colo205 CCL-222 cells were purchased from ATCC. RPMI 1640 no-phenol red medium and fetal bovine serum (FBS) were purchased from Gibco (Grand Island, NY, USA). Cell culture flasks and 384-well microplates were acquired from VWR (Radnor, PA, USA). Total ERK HTRF assay kits were purchased from Cisbio (64NRKPEH, Bedford, MA, USA).
Degradation of ERK1/2 was determined based on quantification of FRET signal using a Total ERK1/2 HTRF assay kit. Test compounds were added to the 384-well plate from a top concentration of 10 μM with 10 points, half-log titration in duplicates. COL0205 cells were added into 384-well plates at a cell density of 5,000 cells per well. The plates were kept at 37° C. with 5% CO2 for 6 hours. Cells treated in the absence of the test compound were the negative control. Positive control was set by wells containing all reagents but no cells. HTRF regents were added according to manufacturer's instructions with the additional step of lysate denaturation at 95° C. for 10 minutes and cooling to room temperature before antibody addition. Following addition of the antibodies the samples were incubated overnight. FRET signal was acquired on an EnVision™ Multilabel Reader (PerkinElmer, Santa Clara, CA, USA).

NSP3 UBL2_PLpro-HA-HiBiT = NSP3 UBL2_PLpro-HA-HiBiT (Severe acute respiratory syndrome coronavirus 2, UniProt P0DTC1); test: NSP3 UBL2_PLpro-HA-HiBiT degradation assay (cellular) in 293T cells; format: cell-based, Severe acute respiratory syndrome Coronavirus 2 (Sars-CoV-2); conditions: 6.0 hours; for DC50: read-out: HiBiT-Degradation 293T.234 NSP3_PLpro 6.0 hours (DC50); for Emax: HEK-293T, Emax = residual protein remaining after treatment, read-out: HiBiT-Degradation 293T.234 NSP3_PLpro 6.0 hours (Emax %)
[1] = 1.5 h room temperature, numeric bounds
[2] = 1.5 h room temperature, class symbols

CRBN-DDB1, sequence (Q96SW2 whole entry): as the sequence (Q96SW2 whole entry, species assumed) above
CRBN-DDB1, sequence (Q16531 whole entry partner): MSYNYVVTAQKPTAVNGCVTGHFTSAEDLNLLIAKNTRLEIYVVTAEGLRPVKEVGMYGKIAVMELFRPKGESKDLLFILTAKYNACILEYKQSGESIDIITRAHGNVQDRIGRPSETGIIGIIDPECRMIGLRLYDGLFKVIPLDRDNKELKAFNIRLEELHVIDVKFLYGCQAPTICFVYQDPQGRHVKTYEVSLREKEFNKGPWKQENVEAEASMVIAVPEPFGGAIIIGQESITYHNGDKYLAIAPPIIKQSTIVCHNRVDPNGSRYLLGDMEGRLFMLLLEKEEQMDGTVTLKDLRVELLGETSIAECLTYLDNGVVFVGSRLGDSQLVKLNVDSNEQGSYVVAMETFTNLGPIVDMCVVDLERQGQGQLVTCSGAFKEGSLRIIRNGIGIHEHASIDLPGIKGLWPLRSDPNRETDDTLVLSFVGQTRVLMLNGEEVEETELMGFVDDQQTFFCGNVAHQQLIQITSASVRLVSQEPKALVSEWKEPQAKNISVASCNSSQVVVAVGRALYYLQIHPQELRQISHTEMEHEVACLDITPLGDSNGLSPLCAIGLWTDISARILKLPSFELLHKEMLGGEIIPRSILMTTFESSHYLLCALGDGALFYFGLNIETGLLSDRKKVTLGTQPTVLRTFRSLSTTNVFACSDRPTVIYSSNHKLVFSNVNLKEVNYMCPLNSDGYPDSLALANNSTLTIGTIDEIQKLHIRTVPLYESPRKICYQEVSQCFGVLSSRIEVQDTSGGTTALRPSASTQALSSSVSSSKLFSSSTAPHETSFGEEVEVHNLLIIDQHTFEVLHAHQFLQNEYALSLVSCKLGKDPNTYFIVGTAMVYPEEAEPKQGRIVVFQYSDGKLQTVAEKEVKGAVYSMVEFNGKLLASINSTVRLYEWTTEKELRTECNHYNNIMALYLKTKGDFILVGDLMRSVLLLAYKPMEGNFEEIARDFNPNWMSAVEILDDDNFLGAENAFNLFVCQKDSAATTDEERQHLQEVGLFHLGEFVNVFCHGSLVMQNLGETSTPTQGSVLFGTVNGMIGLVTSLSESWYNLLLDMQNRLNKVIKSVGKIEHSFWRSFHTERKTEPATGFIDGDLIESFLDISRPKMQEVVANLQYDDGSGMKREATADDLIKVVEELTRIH

Row | Structure (SMILES) | IC50 (cellular cereblon (CRBN)) [nM] | DC50 (NSP3 UBL2_PLpro-HA-HiBiT) [nM] | Emax (NSP3 UBL2_PLpro-HA-HiBiT) [%] | other results
1 | CNC(=O)N1CCc2c(c(N3CCCc4cc(-c5cnn(C)c5)c(C(F)F)cc43)nn2C2CCN(C(=O)CCCCCCCCN3CCC(c4ccc5c6c(cccc46)C(=O)N5C4CCC(=O)NC4=O)CC3)CC2)C1 (stereo not drawn) | – | – | – | Kd (CRBN-DDB1; [1]): < 10 nM; DC50 (CBP/P300): < 10 nM; Emax (CBP/P300): < 30%
2 | CNC(=O)N1CCc2c(c(N3CCCc4cc(-c5cnn(C)c5)c(C(F)F)cc43)nn2C2CCN(C(=O)CCCCCCCCN3CCC(Nc4ccc5c6c(cccc46)C(=O)N5C4CCC(=O)NC4=O)CC3)CC2)C1 (stereo not drawn) | – | – | – | Kd (CRBN-DDB1; [1]): < 10 nM; DC50 (CBP/P300): < 10 nM; Emax (CBP/P300): < 30%
3 | COC(=O)c1ccc2c3c(cccc13)C(=O)N2C1CCC(=O)NC1=O (stereo not drawn) | < 100 | – | – | Kd (CRBN-DDB1; [2]): 100 to 1000 nM
4 | Nc1ccc2c3c(cccc13)C(=O)N2C1CCC(=O)NC1=O (stereo not drawn) | < 100 | – | – | Kd (CRBN-DDB1; [2]): 100 to 1000 nM
5 | O=C1CCC(N2C(=O)c3cccc4c(C5CCNCC5)ccc2c34)C(=O)N1 (stereo not drawn) | < 100 | – | – | –
6 | N#Cc1ccc2c3c(cccc13)C(=O)N2C1CCC(=O)NC1=O (stereo not drawn) | < 100 | – | – | –
7 | O=C1CCC(N2C(=O)c3cccc4c(C5CCN(CC(=O)N6CC(c7nc8ccc(-c9n[nH]c%10cc%11c(cc9%10)CN(Cc9ccccc9)C(=O)N%11)cc8o7)C6)CC5)ccc2c34)C(=O)N1 (stereo not drawn) | – | – | – | DC50 (ERK1/2): 100 to 1000 nM; Kd (CRBN-DDB1; class symbols): 1000 to 10000 nM
8 | O=C1CCC(N2C(=O)C3CCCc4c(C5CCN(CCCC(=O)N6CC(c7nc8ccc(-c9n[nH]c%10cc%11c(cc9%10)CN(Cc9ccccc9)C(=O)N%11)cc8o7)C6)CC5)ccc2c43)C(=O)N1 (stereo not drawn) | – | – | – | DC50 (ERK1/2): 100 to 1000 nM; Kd (CRBN-DDB1; class symbols): 1000 to 10000 nM
9 | CC(c1ccc(C#CC2CCN(C(=O)CN3CCC(c4ccc5c6c(cccc46)C(=O)N5C4CCC(=O)NC4=O)CC3)CC2)c2ccccc12)N1CCC(C(=O)NCc2cccc(F)c2)CC1 (stereo not drawn) [Compound 102, 1-[1-[4-[2-[1-[2-[4-[1-(2,6-dioxo-3-piperidyl)-2-oxo-benzo[cd]indol-6-yl]-1-piperidyl]acetyl]-4-piperidyl]ethynyl]-1-naphthyl]ethyl]-N-[(3-fluorophenyl)methyl]piperidine-4-carboxamide] | – | > 10000 | 61 to 95 | –
10 | CC(c1ccc(C#CC2CCN(C(=O)CN3CCC(c4ccc5c6c(cccc46)N(C4CCC(=O)NC4=O)C5=O)CC3)CC2)c2ccccc12)N1CCC(C(=O)NCc2cccc(F)c2)CC1 (stereo not drawn) [Compound 103, 1-[1-[4-[2-[1-[2-[4-[1-(2,6-dioxo-3-piperidyl)-2-oxo-benzo[cd]indol-5-yl]-1-piperidyl]acetyl]-4-piperidyl]ethynyl]-1-naphthyl]ethyl]-N-[(3-fluorophenyl)methyl]piperidine-4-carboxamide] | – | > 10000 | 61 to 95 | –
11 | CC(c1cccc2c(C#CC3CCN(C(=O)CN4CCC(c5ccc6c7c(cccc57)C(=O)N6C5CCC(=O)NC5=O)CC4)CC3)cccc12)N1CCC(C(=O)NCc2cccc(F)c2)CC1 (stereo not drawn) [Compound 104, 1-[1-[5-[2-[1-[2-[4-[1-(2,6-dioxo-3-piperidyl)-2-oxo-benzo[cd]indol-6-yl]-1-piperidyl]acetyl]-4-piperidyl]ethynyl]-1-naphthyl]ethyl]-N-[(3-fluorophenyl)methyl]piperidine-4-carboxamide] | – | > 10000 | 61 to 95 | –
12 | CC(c1cccc2c(C#CC3CCN(C(=O)CN4CCC(c5ccc6c7c(cccc57)N(C5CCC(=O)NC5=O)C6=O)CC4)CC3)cccc12)N1CCC(C(=O)NCc2cccc(F)c2)CC1 (stereo not drawn) [Compound 105, 1-[1-[5-[2-[1-[2-[4-[1-(2,6-dioxo-3-piperidyl)-2-oxo-benzo[cd]indol-5-yl]-1-piperidyl]acetyl]-4-piperidyl]ethynyl]-1-naphthyl]ethyl]-N-[(3-fluorophenyl)methyl]piperidine-4-carboxamide] | – | > 10000 | 61 to 95 | –
